Results from BindingDB's records for doi:10.1021/jm800566m (Gsk, 2008).

Assay: The assay uses purified baculovirus-expressed GST-VEGFR2 interacting with biotinylated peptide substrates. HTRF is based on the proximity of europium cryptate (donor fluorophore)-labeled antiphosphotyrosine and streptavidin labeled with APC (allophycocyanin), which have been brought together by a binding reaction.
Settings: pH 7.5

Compound	IC50
Cc1n[nH]c2cc(N(C)c3ccnc(Nc4cccc(S(N)(=O)=O)c4)n3)ccc12 [3-({4-[methyl(3-methyl-1H-indazol-6-yl)amino]pyrimidin-2-yl}amino)benzene-1-sulfonamide]	0.6 nM
CN(c1ccc2cn(C)nc2c1)c1ccnc(Nc2cccc(S(N)(=O)=O)c2)n1 [3-({4-[methyl(2-methyl-2H-indazol-6-yl)amino]pyrimidin-2-yl}amino)benzene-1-sulfonamide]	7.6 nM
Cc1c2ccc(N(C)c3ccnc(Nc4cccc(S(N)(=O)=O)c4)n3)cc2nn1C [3-({4-[(2,3-dimethyl-2H-indazol-6-yl)(methyl)amino]pyrimidin-2-yl}amino)benzene-1-sulfonamide]	5.6 nM
Cc1c2ccc(N(C)c3ccnc(Nc4cccc(S(N)(=O)=O)c4)n3)cc2nn1Cc1ccccc1 [3-({4-[(2-benzyl-3-methyl-2H-indazol-6-yl)(methyl)amino]pyrimidin-2-yl}amino)benzene-1-sulfonamide]	2.6 nM
Cc1nn(C)c2cc(N(C)c3ccnc(Nc4cccc(S(N)(=O)=O)c4)n3)ccc12 [3-({4-[(1,3-dimethyl-1H-indazol-6-yl)(methyl)amino]pyrimidin-2-yl}amino)benzene-1-sulfonamide]	36 nM
Cc1nc2cc(N(C)c3ccnc(Nc4cccc(S(N)(=O)=O)c4)n3)ccc2n1C [3-({4-[(1,2-dimethyl-1H-1,3-benzodiazol-5-yl)(methyl)amino]pyrimidin-2-yl}amino)benzene-1-sulfonamide]	17 nM
Cc1nc2ccc(N(C)c3ccnc(Nc4cccc(S(N)(=O)=O)c4)n3)cc2n1C [3-({4-[(1,2-dimethyl-1H-1,3-benzodiazol-6-yl)(methyl)amino]pyrimidin-2-yl}amino)benzene-1-sulfonamide]	63 nM
